For orientation: IC50 means the concentration needed to halve the response being measured. A low value points to higher potency.

Values after ≈ are worked out from the molar mass of the structure shown.

The nature of the assay: Inhibitory concentration against human 2'-phosphodiesterase.

Molecule `C[C@@H]1c2c(O)cc(O)c3c2[C@H]2[C@H](CC(=O)C4=C(O)c5c(O)cc(O)cc5[C@@H](C3=O)[C@]42Cc2cc(O)cc(=O)o2)[C@H]1O` returned an IC50 of 34 µg/mL (≈ 60.7 µM).
